Consider 14 molecules from US20120028988A1, “USE OF PYRIDAZINONE COMPOUND FOR CONTROL OF HARMFUL ARTHROPOD PESTS” (SUMITOMO CHEMICAL COMPANY, LIMITED, priority 2009, published 2012).

The first series has as its system Blattalla germanica. Put plainly: Test Example 6: treated filter paper with sucrose, Blattalla germanica male adults, mortality index. In kind it is in vivo. Conditions: 500 ppm active ingredient, 0.7 mL on filter paper with sucrose; 2 male adults; after 6 days. On the procedure:
(§1) The preparation of the present composition obtained by Preparation Example 14 was diluted with water so as to have a concentration of active ingredient of 500 ppm, to prepare a drug solution for test.
A filter paper with a diameter of 5.5 cm was placed in the bottom of a polyethylene cup, then 0.7 mL of the above drug solution for test was added dropwise on the filter paper, and 30 mg of sucrose was uniformly added as a feed. 2 male adults of Blattalla germanica were released in the polyethylene cup, and the lid was closed. The number of dead insects was calculated after 6 days.
The mortality was calculated by the following equation and was evaluated by the indexes of 4: mortality 100%, 2:50%, and 0:0%.
Mortality (%)=(Number of Dead Insects/Number of Test Insects)×100
On to `CCc1ccccc1-c1c(OC(=O)c2ccccc2)cnn(C)c1=O` [I-b-1, 5-benzoyloxy-4-(2-ethylphenyl)-2-methyl-3(2H)-pyridazinone], for which the “index (mortality)” value was 4 (mortality 100%).

The test system of another series is Frankliniella occidentalis. Put plainly: Test Example 10: spray on cucumber, Frankliniella occidentalis larvae on cut leaves, preventive value. Conditions: 500 ppm active ingredient, 10 mL/cup sprayed on cucumber; larvae on cut first true leaves; after 7 days. In kind it is in vivo. On the procedure:
The drug solution for test was sprayed at a rate of 10 mL/cup on cucumber at the second true leaf-expansion stage planted in a polyethylene cup. After the drug solution dried, the first true leaves were cut out and placed in a polyethylene cup, then 20 larvae of Frankliniella occidentalis were released, and the lid was closed. After 7 days, the number of surviving larvae on the leaves of cucumber was investigated, and the preventive value was calculated by the following equation. Preventive Value (%)={1−(Cb×Tai)/(Cai×Tb)}×100 Here, the letters in the equation represent the following meaning. Cb: Number of Insects in Untreated Area Before Treatment Cai: Number of Insects in Untreated Area at Observation Tb: Number of Insects in Treated Area Before Treatment Tai: Number of Insects in Treated Area at Observation
Take `Cc1ccc(-c2ccc(Cl)cc2)cc1-c1c(O)c(C)nn(C)c1=O` [I-a-40]: the preventive value is reported as ≥ 90%.

Another series concerns Spodoptera litura. Put plainly: whole plant or invertebrate. In kind it is in vivo. Conditions: 144 h, 500 ppm active ingredient, 20 mL/cup sprayed on Brassicae oleracea, fourth-stage larvae, 25° C., after 6 days, read-out: mortality of the insects. On the procedure:
as §1
The drug solution for test was sprayed at a rate of 20 mL/cup on Brassicae oleracea at the 5 to 6 leaf stages planted in a polyethylene cup. After the drug solution dried, 10 fourth-stage larvae of Spodoptera litura were released. Brassicae oleracea at the 5 to 6 leaf stage planted in this polyethylene cup was covered with an another polyethylene cup (volume of 400 mL). This was stored at 25° C., and the number of surviving insects was counted after 6 days, then the mortality of the insects was calculated by the following equation.
(§2) Mortality of Insects (%)=(Number of Dead Insects/Number of Test Insects)×100
On to `Cc1ccc(-c2ccc(Cl)cc2)cc1-c1c(O)cnn(C)c1=O` [I-a-59, 4-[5-(4-chlorophenyl)-2-methylphenyl]-5-hydroxy-2-methyl-3(2H)-pyridazinone], for which the mortality at 500 ppm was ≥ 80%.

The next series relates to Plutella xylostella. Put plainly: whole plant or invertebrate. In kind it is in vivo. Conditions: 120 h, 500 ppm active ingredient, 20 mL/cup sprayed on Brassicae oleracea, second-stage larvae, 25° C., after 5 days, read-out: mortality of the insects. On the procedure: as §1
The drug solution for test was sprayed at a rate of 20 mL/cup on Brassicae oleracea at the 3 leaf stage planted in a polyethylene cup. After the drug solution dried, leaves and stems were cut out and placed in a 50 mL cup. 5 second-stage larvae of Plutella xylostella were released there, and the lid was closed. This cup was stored at 25° C., and the number of surviving insects was counted after 5 days, and the mortality of the insects was calculated by the following equation.
as §2
For `Cc1ccc(-c2ccc(Cl)cc2)cc1-c1c(O)cnn(C)c1=O` [I-a-59, 4-[5-(4-chlorophenyl)-2-methylphenyl]-5-hydroxy-2-methyl-3(2H)-pyridazinone], the mortality at 500 ppm was ≥ 80%. For `Cc1ccc(-c2ccc(F)cc2)cc1-c1c(O)c(C)nn(C)c1=O` [I-a-46, 4-[5-(4-fluorophenyl)-2-methylphenyl]-5-hydroxy-2,6-dimethyl-3(2 H)-pyridazinone], the mortality at 500 ppm was ≥ 80%.

System in a further series: not given
Experiment: not given
Settings: not given
With `C#Cc1cc(C)cc(C)c1-c1c(O)c(C)nn(C)c1=O` [I-a-44, 4-(2-ethynyl-4,6-dimethylphenyl)-5-hydroxy-2,6-dimethyl-3(2H)-pyridazinone], the melting point was in the range of 179 to 181 °C. Molecule `CCc1cc(C)c(F)c(CC)c1-c1c(O)c(C)nn(C)c1=O` [I-a-74, 4-(2,6-diethyl-3-fluoro-4-methylphenyl)-5-hydroxy-2,6-dimethyl-3(2H)-pyridazinone] had a melting point of 193 to 195 °C.

Consider `CCc1cc(C)c(Br)c(CC)c1-c1c(O)c(C)nn(C)c1=O` [I-a-47, 4-(3-bromo-2,6-diethyl-4-methylphenyl)-5-hydroxy-2,6-dimethyl-3(2H)-pyridazinone], for which the melting point is 235 to 236 °C.

Regarding `CCc1cc(CC)c(-c2c(O)c(C)nn(C)c2=O)c(CC)c1I` [I-a-72, 5-hydroxy-2,6-dimethyl-4-(2,4,6-triethyl-3-iodophenyl)-3(2H)-pyridazinone], the melting point fell in the range of 217 to 219 °C.

`CCc1cc(CC)c(-c2c(O)c(C)nn(C)c2=O)c(CC)c1Br` [I-a-50, 4-(3-bromo-2,4,6-triethylphenyl)-5-hydroxy-2,6-dimethyl-3(2H)-pyridazinone] had a melting point of 225 to 226 °C.

Molecule `CCc1cc(C)c(Br)c(CC)c1-c1c(OC(=O)OC)c(C)nn(C)c1=O` [I-b-50, 4-(3-bromo-2,6-diethyl-4-methylphenyl)-5-methoxycarbonyloxy-2,6-dimethyl-3(2H)-pyridazinone] displayed a melting point of 113 to 115 °C. Regarding `CCc1cc(CC)c(-c2c(O)c(C)nn(C)c2=O)c(CC)c1Cl` [I-a-49, 4-(3-chloro-2,4,6-triethylphenyl)-5-hydroxy-2,6-dimethyl-3(2H)-pyridazinone], the melting point lay in the range of 225 to 226 °C. Turning to `CCc1c(Cl)c(CC)c(-c2c(O)c(C)nn(C)c2=O)c(CC)c1Cl` [I-a-71, 4-(3,5-dichloro-2,4,6-triethylphenyl)-5-hydroxy-2,6-dimethyl-3(2H)-pyridazinone], the melting point lay within 266 to 267 °C. For the molecule `CCc1cc(C)c(-c2ccc(Cl)cc2)c(CC)c1-c1c(O)c(C)nn(C)c1=O` [I-a-48, 4-[3-(4-chlorophenyl)-2,6-diethyl-4-methylphenyl)-5-hydroxy-2,6-dimethyl-3(2H)-pyridazinone], the melting point is 248 to 250 °C. Same read-out and setting: then `Cc1ccc(Br)cc1-c1c(O)c(C)nn(C)c1=O` [I-a-45, 4-(5-bromo-2-methylphenyl)-5-hydroxy-2,6-dimethyl-3(2H)-pyridazinone], with 217 to 218 °C.
